In PubChem BioAssay AID2060599 (Molecular Pharmacology Branch, DTP, NCI, 2025):

System: 817829-284-R-J1-PDC complex spheroids, viability
Experiment: Anticancer human tumor 817829-284-R-J1-PDC patient-derived colon adenocarcinoma cell line growth inhibition [CLK]
Settings: for IC50: curve of first compound; for viability, T/C: stronger effect = lower value
Method in brief: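 Patient-derived tumor cells grown as complex spheroids with HUVEC endothelial cells and mesenchymal stem cells, treated with drug combinations. Concentrations descend in half-log steps from near clinical Cmax, or from 10 microM if Cmax unknown.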

[1] = second compound 0.0316 µM, first compound 0.0316 µM
[2] = second compound 0.0316 µM, first compound 0.1 µM
[3] = second compound 0.0316 µM, first compound 0.316 µM
[4] = second compound 0.0316 µM, first compound 1 µM
[5] = second compound 0.0316 µM, first compound 3.16 µM
[6] = second compound 0.0316 µM, first compound 10 µM
[7] = second compound 0.1 µM, first compound 0.0316 µM
[8] = second compound 0.1 µM, first compound 0.1 µM
[9] = second compound 0.1 µM, first compound 0.316 µM
[10] = second compound 0.1 µM, first compound 1 µM
[11] = second compound 0.1 µM, first compound 3.16 µM
[12] = second compound 0.1 µM, first compound 10 µM
[13] = second compound 0.316 µM, first compound 0.0316 µM
[14] = second compound 0.316 µM, first compound 0.1 µM
[15] = second compound 0.316 µM, first compound 0.316 µM
[16] = second compound 0.316 µM, first compound 1 µM
[17] = second compound 0.316 µM, first compound 3.16 µM
[18] = second compound 0.316 µM, first compound 10 µM
[19] = second compound 1 µM, first compound 0.0316 µM
[20] = second compound 1 µM, first compound 0.1 µM
[21] = second compound 1 µM, first compound 0.316 µM
[22] = second compound 1 µM, first compound 1 µM
[23] = second compound 1 µM, first compound 3.16 µM
[24] = second compound 1 µM, first compound 10 µM
[25] = second compound 3.16 µM, first compound 0.0316 µM
[26] = second compound 3.16 µM, first compound 0.1 µM
[27] = second compound 3.16 µM, first compound 0.316 µM
[28] = second compound 3.16 µM, first compound 1 µM
[29] = second compound 3.16 µM, first compound 3.16 µM
[30] = second compound 3.16 µM, first compound 10 µM
[31] = second compound 10 µM, first compound 0.0316 µM
[32] = second compound 10 µM, first compound 0.1 µM
[33] = second compound 10 µM, first compound 0.316 µM
[34] = second compound 10 µM, first compound 1 µM
[35] = second compound 10 µM, first compound 3.16 µM
[36] = second compound 10 µM, first compound 10 µM
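Further: spheroids exposed to the agents for seven days before readout.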

Work on `CCCS(=O)(=O)Nc1ccc(F)c(C(=O)c2c[nH]c3ncc(-c4ccc(Cl)cc4)cc23)c1F` + CN1CCN(c2cc(C(=O)Nc3cc4cc(-c5cnn(C)c5)ccc4cn3)ccn2)CC1 yielded an IC50 (second compound 0.0316 µM) of under 31.6 nM, an IC50 (second compound 0.1 µM) of under 31.6 nM and an IC50 (second compound 0.316 µM) of under 31.6 nM. The IC50 (second compound 1 µM) was under 31.6 nM, the IC50 (second compound 3.16 µM) was under 31.6 nM and the IC50 (second compound 10 µM) was under 31.6 nM. For the same molecule, the viability, T/C [1] was 53.5%, the viability, T/C [2] was 41.8% and the viability, T/C [3] was 39.8%. The viability, T/C [4] was 43.8%, the viability, T/C [5] was 35.6% and the viability, T/C [6] was 18.4%. For the same molecule, the viability, T/C [7] was 19%, the viability, T/C [8] was 17.5% and the viability, T/C [9] was 14.2%. The viability, T/C [10] was 11.8%, the viability, T/C [11] was 12.2% and the viability, T/C [12] was 3.08%. For the same molecule, the viability, T/C [13] was 1.39%, the viability, T/C [14] was 1.67% and the viability, T/C [15] was 1.88%. It also gave a viability, T/C [16] of 1.17%, a viability, T/C [17] of 1.2% and a viability, T/C [18] of 0.66%. It also gave a viability, T/C [19] of 0.09%, a viability, T/C [20] of 0.11% and a viability, T/C [21] of 0.15%. It also gave a viability, T/C [22] of 0.09%, a viability, T/C [23] of 0.09% and a viability, T/C [24] of 0.08%. The viability, T/C [25] was 0.09%, the viability, T/C [26] was 0.18% and the viability, T/C [27] was 0.1%. The viability, T/C [28] was 0.2%, the viability, T/C [29] was 0.13% and the viability, T/C [30] was 0.09%. It also gave a viability, T/C [31] of 0.06%, a viability, T/C [32] of 0.08% and a viability, T/C [33] of 0.1%. The viability, T/C [34] was 0.18%, the viability, T/C [35] was 0.21% and the viability, T/C [36] was 0.17%.
`COc1ccc([C@@H](O)c2cc(-c3ncnc4cc(N5CCOCC5)ccc34)c(F)cc2Cl)nn1` + CN1CCN(c2cc(C(=O)Nc3cc4cc(-c5cnn(C)c5)ccc4cn3)ccn2)CC1 gave an IC50 (second compound 0.0316 µM) of 429 nM, an IC50 (second compound 0.1 µM) of under 31.6 nM and an IC50 (second compound 0.316 µM) of under 31.6 nM. It also gave an IC50 (second compound 1 µM) of under 31.6 nM, an IC50 (second compound 3.16 µM) of under 31.6 nM and an IC50 (second compound 10 µM) of under 31.6 nM. The viability, T/C [1] was 79.8%, the viability, T/C [2] was 69% and the viability, T/C [3] was 59.6%. The viability, T/C [4] was 29.3%, the viability, T/C [5] was 19.4% and the viability, T/C [6] was 10.3%. For the same molecule, the viability, T/C [7] was 15.4%, the viability, T/C [8] was 17.1% and the viability, T/C [9] was 14.9%. It also gave a viability, T/C [10] of 13%, a viability, T/C [11] of 11.8% and a viability, T/C [12] of 6.42%. For the same molecule, the viability, T/C [13] was 1.6%, the viability, T/C [14] was 2.02% and the viability, T/C [15] was 2.05%. The viability, T/C [16] was 1.33%, the viability, T/C [17] was 1% and the viability, T/C [18] was 0.54%. It also gave a viability, T/C [19] of 0.08%, a viability, T/C [20] of 0.13% and a viability, T/C [21] of 0.1%. It also gave a viability, T/C [22] of 0.06%, a viability, T/C [23] of 0.1% and a viability, T/C [24] of 0.07%. The viability, T/C [25] was 0.14%, the viability, T/C [26] was 0.14% and the viability, T/C [27] was 0.19%. It also gave a viability, T/C [28] of 0.11%, a viability, T/C [29] of 0.13% and a viability, T/C [30] of 0.16%. For the same molecule, the viability, T/C [31] was 0.09%, the viability, T/C [32] was 0.06% and the viability, T/C [33] was 0.13%. For the same molecule, the viability, T/C [34] was 0.08%, the viability, T/C [35] was 0.15% and the viability, T/C [36] was 0.12%.
